According to ChEMBL document CHEMBL5576135, “Discovery of Indolo[3,2-c]isoquinoline Derivatives as Novel Top1/2 Dual Inhibitors with Orally Efficacious Antitumor Activity and Low Toxicity” (J Med Chem, 2024):

Experiments:
Format in all cases: functional
[1] = tested on: HCT-116; assay: Antitumor activity against human HCT-116 cells xenografted with BALB/c mouse assessed as tumor growth inhibition by measuring T/C ratio at 100 mg/kg,po administrated once daily for 21 days; conditions: time 21 day
[2] = tested on: NCI-H446; assay: Antitumor activity against human NCI-H446 cells xenografted with BALB/c mouse assessed as tumor growth inhibition at 50 mg/kg,po administrated once daily for 21 days relative to control; conditions: NCI-H446, 504 h, time 21 day, read-out: TGI
[3] = tested on: NCI-H446; assay: Antitumor activity against human NCI-H446 cells xenografted with BALB/c mouse assessed as tumor growth inhibition by measuring T/C ratio at 100 mg/kg,po administrated once daily for 21 days; conditions: time 21 day
[4] = tested on: HCT-116; assay: Antitumor activity against human HCT-116 cells xenografted with BALB/c mouse assessed as tumor growth inhibition at 100 mg/kg,po administrated once daily for 21 days relative to control; conditions: HCT-116, 504 h, time 21 day, read-out: TGI
[5] = tested on: NCI-H446; assay: Antitumor activity against human NCI-H446 cells xenografted with BALB/c mouse assessed as tumor growth inhibition by measuring T/C ratio at 50 mg/kg,po administrated once daily for 21 days; conditions: time 21 day
[6] = tested on: HCT-116; assay: Antitumor activity against human HCT-116 cells xenografted with BALB/c mouse assessed as tumor growth inhibition by measuring T/C ratio at 50 mg/kg,po administrated once daily for 21 days; conditions: time 21 day

Q: Which results are given for `CN(C)CCCn1c2cc3c(cc2c2ncc4ccccc4c21)OCO3`?
A: T/C [1]: 18%; inhibition in vivo at 50 mg/kg [2]: 49.2%; T/C [3]: 35.2%; inhibition in vivo at 100 mg/kg [4]: 77.4%; T/C [5]: 52.3%; T/C [6]: 55%
